The source of these data is patent US9725490B2, “ERAP1-derived peptide and use thereof” (TOKUSHIMA UNIVERSITY, priority 2011, dated 2017).

Format in all cases: cell-based, human
In one assay the test system is MCF-7 cells. In words: E2-independent cell proliferation, MCF-7. To be noted: 1, 3, 5 and 10 μM, 24 hours. How it is done: (§1) FIG. 15 is a diagram illustrating the effects of the ERAP1-peptide on E2-independent cell functions. […] MCF-7 cells were treated with the ERAP1-peptide in each concentration (1, 3, 5 and 10 μM) or 10 nM tamoxifen as a positive control for 24 hours. […] MCF-7 cells were stimulated with 10 μM ERAP1-peptide treatment only, 10 nM E2 treatment only, or 10 μM ERAP1-peptide treatment and immediately 10 nM E2 for 24 hours, and the cytoplasm fraction was isolated from each of the treated cells. Then, the cytoplasm fraction was immunoprecipitated with anti-ERα antibody. Furthermore, with respect to the obtained sample, Western blotting analysis was performed using the antibodies shown in the figure.
MCF-7 cells or ZR-75-1 cells were seeded in 2×10^4/well, and KPL-3C cells were seeded in 1×10^4/well on a 48-well plate, and stood in a CO2 incubator for 24 hours. Then, for MCF-7 cells, the culture medium was exchanged with DMEM/F12 culture medium containing 10% FBS (Nichirei Biosciences, Tokyo, Japan), 1% antibiotic/antimycotic solution (Invitrogen), 0.1 mM NEAA48 (invitrogen), 1 mM sodium pyruvate and 10 μg/ml insulin (Sigma, St. Louis, Mo., USA) and not containing phenol red, and the cells were further pre-cultured for 24 hours. […] Then, 100 μl from each well was moved to a 96-well plate, and the absorbance at 450 nm was measured with a microplate reader.

Assay [1] has as its system ERα interaction with IGF-1Rβ and Shc. Put plainly: E2-independent non-genomic activation route via IGF-1Rβ, MCF-7. To be noted: 10 μM, 24 hours, cytoplasm fraction. Here is the method:
as §1
MCF-7 cells were subjected to a treatment of 10 μM ERAP1-peptide alone, stimulation with 10 nM E2 alone, and co-stimulation with the ERAP1 peptide and E2, respectively, and after 24 hours, the cytoplasm fraction was isolated from the cells of each treatment. The cytoplasm fraction was precleaned using normal IgG and rec-Protein G Sepharose 4B (Zymed, San Francisco, Calif., USA) at 4° C. for 3 hours, and centrifuged, and then the supernatant was incubated in the presence of anti-ERα antibody at 4° C. for 6 hours. Then, the supernatant was added with rec-Protein G Sepharose 4B and incubated at 4° C. for 1 hour whereby to precipitate an antigen-antibody complex. […]

In assay [2] the test system is generation of ROS in MCF-7 cells. Put plainly: ROS production in the mitochondria, DHR123 flow cytometry. How it is done: FIG. 41-2 is a diagram illustrating that ROS production in the mitochondria by E2 stimulation is induced through ERAP1. […] MCF-7 cells, and MCF-7 cells suppressed for expression of ERAP1, and HCC1395 cells were treated with 10 μM DHR123 for 15 minutes. The cells were washed, and then stimulated with 10 μM ERAP1-peptide and 10 nM E2 for 24 hours, and analyzed by flow cytometry. Cells treated with 1 mM H2O2 for 24 hours were used as a positive control. The data are representative examples of two independent experiments.
(In general: Flow cytometry measures light scatter and fluorescence of single cells or particles in a stream.)

In the case of `CSCC[C@H](NC(=O)[C@H](CCC(N)=O)NC(=O)[C@H](CCCNC(=N)N)NC(=O)[C@H](CCCNC(=N)N)NC(=O)[C@H](CCCNC(=N)N)NC(=O)[C@H](CCCNC(=N)N)NC(=O)[C@H](CCCNC(=N)N)NC(=O)[C@H](CCCNC(=N)N)NC(=O)[C@H](CCCNC(=N)N)NC(=O)[C@H](CCCNC(=N)N)NC(=O)[C@H](CCCNC(=N)N)NC(=O)[C@H](CCCNC(=N)N)NC(=O)[C@@H](N)CCCNC(=N)N)C(=O)N[C@@H](CC(C)C)C(=O)N[C@@H](CO)C(=O)N[C@@H](CC(=O)O)C(=O)N[C@@H](CC(C)C)C(=O)N[C@H](C(=O)N[C@@H](CC(C)C)C(=O)N[C@@H](CCC(N)=O)C(=O)N[C@@H](CC(C)C)C(=O)N[C@@H](CCCNC(=N)N)C(=O)N[C@@H](CCC(N)=O)C(=O)N[C@@H](CCCNC(=N)N)C(=O)O)[C@@H](C)O` [ERAP1-peptide], the “cell proliferation in the absence of E2” value in the assay with MCF-7 cells is “dose-dependent cell proliferation suppression effect”. Moreover, in assay [1], the “interaction of IGF-1Rβ and Shc with ERα, absence of E2” value was “each interaction of IGF-1Rβ and Shc, and ERα was inhibited”. Also, the “generation of ROS” value in assay [2] (MCF-7 in which expression of ERAP1 was suppressed) was “had no influence on the generation of ROS”; in assay [2] (MCF-7 transfected with control siRNA, 10 μM, E2 24 hours) it was “generation of ROS was remarkably suppressed”.
